US12054503B2, “Amphiphilic material and application thereof in preparation for liposome” (ZHEJIANG UNIVERSITY, priority 2021, dated 2024)

Columns and labels:
[1] = tested on: orthotropic pancreatic tumor (BxPC3-Luci); test: In vivo antitumor activity in orthotropic BxPC3 tumor-bearing mice
Procedure: The orthotropic pancreatic tumor was established by using the bioluminescent BxPC3 cells (BxPC3-Luci). Bioluminescence intensities in mice were measured using the in vivo imaging system of Caliper IVIS Lumina II (PerkinElmer, USA) to evaluate tumour growth. After inoculation with bioluminescent BxPC3 cells for 8 days, the mice were selected and grouped into five groups (n=5). SCGLN, SGLN, free GEM (all dose equivalent to GEM 20 mg/kg), SCLN and PBS were intravenous injected every two days for a total of five times, the tumor site was treated with ultrasound stimulation (intensity: 2 W/cm^2, 3 MHz, duty cycle: 50%, duration: 10 min, Mettler Sonicator-740) after injection. On the first administration (8th day), 12th, 16th, and 20th day, tumor progress was assessed and semi-quantitatively analyzed via bioluminescence after injection of 10 mg/mL D-luciferin in PBS (200 μL) by using the in vivo imaging system. Mice were sacrificed on the 20th day, and tumors were dissected and weighed. The tumor inhibition rate=100%×(mean tumor weight of PBS group−mean tumor weight of experimental group)/mean tumor weight of PBS group. The tumors were fixed with 4% neutral buffered paraformaldehyde and embedded in paraffin. Tissue sections of 5-μm thick were mounted onto glass slides and stained with hematoxylin-eosin (H&E) and examined by light microscopy (OLYMPUS, BX51, Japan). […]

U251 glioma = test: In vivo antitumor activity in mice bearing U251 glioma subcutaneously
Procedure: In vivo antitumor activity of the liposomal nanometer particle was further tested in another low permeability tumor of U251 glioma. The mice were subcutaneously inoculated with 2×10^7 U251 cells on the right flank. Same as the experiment of pancreatic tumor treatment, mice were randomly grouped into five groups (n=5) on the 6th day after inoculation. SCGLN, SGLN, free GEM (all dose equivalent to GEM 20 mg/kg), SCLN and PBS were intravenous injected every two days for a total of five times, the tumor site was treated with ultrasound stimulation (intensity: 2 W/cm^2, 3 MHz, duty cycle: 50%, duration: 10 min, Mettler Sonicator-740) after injection, the first administration was on the 6th day. The width and length of the tumors and the bodyweight of mice were measured during the treatment. At the end of the experiment, the mice were euthanized, and tumors were dissected and weighed. The therapeutic efficacy of the treatments was evaluated by comparing the experimental group with the control group.

Nc1ccn([C@@H]2O[C@H](CO)[C@@H](O)C2(F)F)c(=O)n1 [GEM, gemcitabine]
Mean tumor inhibition rate ([1]; dose equivalent to GEM 20 mg/kg i.v. every two days, five times, ultrasound stimulation, tumor weight on 20th day): 66.7% | Body weight decrease at the end of the experiment ([1]; end of the experiment): ~10 % of the initial weight | Anti-tumor effect (tumor eradication ability) (U251 glioma; dose equivalent to GEM 20 mg/kg i.v. every two days, five times, ultrasound stimulation, end of the experiment): 68.8% | Weight of mice during the treatment (U251 glioma; mouse, in vivo): gradually decreased
